These results are taken from patent US20110135738A1, “SINGLE DOSAGE PHARMACEUTICAL FORMULATION COMPRISING EPROSARTAN MESYLATE” (LEK Pharmaceutical S. D. D., priority 2008, published 2011).

The conditions of series [1]: oral; cited from earlier work.
For series [2] the following is noted: cited from earlier work.
Series [3] can be described thus: Flowability of powder / final mixture. The class given is physicochemical. To be noted: drug per se.
The nature of series [4]: X-ray diffraction analysis of eprosartan mesylate form / physical stability. It is filed as physicochemical. To be noted: ambient temperature and humidity. As for the experimental part:
During the dry granulation processes using different excipients from the list above, physical stability of the eprosartan mesylate anhydrate was investigated. […] The final tablet form and placebo powder were analyzed by X-ray diffraction (XRD) pattern to confirm presence of anhydrous form of eprosartan mesylate.
Diffractograms were collected on X′Pert PRO MPD diffractometer using CuKα radiation.
Data were recorded from 2 do 40° 2θ; in steps of 0.033° 2θ; with the integration times 50 s (routine testing) and from 4 do 20° 2θ; in steps of 0.033° 2θ; with the integration times 2000 s (to achieve lower LOD). The range for measurements with longer integration times was chosen according to the known diffractograms of eprosartan mesylate crystalline forms, which all have characteristic peaks in the carefully measured range between 4 and 20° 2theta.

For series [5] the following is noted: at RH over 60%; cited from earlier work.

The bioavailability is the share of a dose that reaches the circulation, judged against a reference dose that is usually intravenous. For `CCCCc1ncc(/C=C(\Cc2cccs2)C(=O)O)n1Cc1ccc(C(=O)O)cc1.CS(=O)(=O)O` [Eprosartan mesylate, (E)-α-[2-n-butyl-1-[(4-carboxyphenyl)methyl]-1H-imidazol-5-yl]methylene-2-thiophenepropionic acid monomethanesulfonate], in series [1], the bioavailability was 13%. Further, the “permeability across the intestinal epithelium” value in series [2] was “low permeability”. Also, the “flowability of eprosartan mesylate” value in series [3] is given as “below 0.15 g/sec”. Besides, the “physical and chemical stability of anhydrous form” value in series [4] was “physically and chemically stable”. In addition, in series [5], the “interconversion of anhydrous form” value is “interconverts to eprosartan mesylate mono- and later to dihydrate”.
